Consider 1 compound from patent publication US4472376A, “Pharmaceutical insertion compositions and a process for producing the same” (Toko Yakuhin Kogyo Kabushiki Kaisha, priority 1976, dated 1984).

Molecules are shown by their SMILES.

The conditions of series [1]: known value; cited from earlier work.
Series [2] can be described thus: Concentration of 5-fluorouracil in the serum after insertion into the rectum of a rabbit. The settings on record: insertion composition of Example 16, rabbit; 3 hours after the insertion. Format: in vivo. The protocol:
When the pharmaceutical insertion composition of the present invention is inserted into the rectum, its concentration in the serum is as follows:
A pharmaceutical insertion composition obtained in Example 16 is inserted into the rectum of a rabbit having the body weight of 3.2 kg at the rate of 20 mg of 5-fluoroaracil per 1 kg of the body weight, and the concentration of 5-fluorouracil in the serum after the insertion is measured to show the following results: […]

Series [3] is described as follows: 5-fluorouracil blood concentration / absorption by other dosage forms, compared with effective concentration in blood. Format: in vivo. The source says:
Thus, it has been clearly known that the dosage in the form of the insertion composition of the present invention is quite excellent.

With `O=c1[nH]cc(F)c(=O)[nH]1` [5-fluorouracil], the “effective concentration in blood” value in series [1] is “about 0.08 μg/ml”. In addition, in series [2], the “maintenance of effective concentration in blood after rectal insertion of the gel composition” value is recorded as “maintains sufficient effective concentration in blood”. Also, in series [3] (conventional suppository or liquid), the “absorption from conventional suppository or liquid form” value is given as “barely absorbed”. In addition, in series [3] (injected into vein, 30 minutes later), the “concentration in blood after injection into vein” value is given as “less than the effective blood concentration”.
